Measurements taken from ChEMBL document CHEMBL1201862, “PubChem BioAssay data set” (2004).
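All cell lines were grown in 96-well plates and treated with compound for 48 hours. At the GI50, growth is halved.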 Activity calls are given as the source filed them. Cut-off read from the data, not from the text of the source: active = GI50 up to about 1.1 µM and inactive = higher.

What was measured:
Test in all cases: DTP human tumour cell line panel, 48 h
SW-620 = test system: SW-620
U-251 = test system: U-251
UO-31 = test system: UO-31
A549 = test system: A549
MOLT-4 = test system: MOLT-4
MCF7 = test system: MCF7
ACHN = test system: ACHN
TK-10 = test system: TK-10
M14 = test system: M14
UACC-62 = test system: UACC-62
COLO 205 = test system: COLO 205
DU-145 = test system: DU-145
T47D = test system: T47D
UACC-257 = test system: UACC-257
SK-MEL-5 = test system: SK-MEL-5
SF-268 = test system: SF-268
HT-29 = test system: HT-29
RXF 393 = test system: RXF 393
HOP-62 = test system: HOP-62
PC-3 = test system: PC-3
MDA-MB-435 = test system: MDA-MB-435
LOX IMVI = test system: LOX IMVI
Malme-3M = test system: Malme-3M
HOP-92 = test system: HOP-92
HL-60 = test system: HL-60
HCC 2998 = test system: HCC 2998
HCT-15 = test system: HCT-15
IGROV-1 = test system: IGROV-1
KM12 = test system: KM12
NCI-H460 = test system: NCI-H460
RPMI-8226 = test system: RPMI-8226
MDA-N = test system: MDA-N
K562 = test system: K562
SF-539 = test system: SF-539
EKVX = test system: EKVX
SK-MEL-2 = test system: SK-MEL-2
SK-MEL-28 = test system: SK-MEL-28
MDA-MB-231 = test system: MDA-MB-231
NCI-H522 = test system: NCI-H522
CAKI-1 = test system: CAKI-1
OVCAR-5 = test system: OVCAR-5
SR = test system: SR
786-0 = test system: 786-0
NCI-H23 = test system: NCI-H23
SNB-19 = test system: SNB-19
NCI-H226 = test system: NCI-H226
CCRF-CEM = test system: CCRF-CEM
SF-295 = test system: SF-295
SN12C = test system: SN12C
SK-OV-3 = test system: SK-OV-3
OVCAR-3 = test system: OVCAR-3
HCT-116 = test system: HCT-116
OVCAR-4 = test system: OVCAR-4
A498 = test system: A498
Hs-578T = test system: Hs-578T
BT-549 = test system: BT-549
SNB-75 = test system: SNB-75

Question: Which GI50 (SW-620) does the source give for `FC(F)(F)c1ccc(/N=N/N2CCCC2)cc1` here?
Answer: > 100 µM (inactive)

Question: And the GI50 (U-251)?
Answer: > 100 µM (inactive)

Question: What about the GI50 (UO-31) of the same compound?
Answer: 54.7 µM (inactive)

Question: And the GI50 (A549)?
Answer: > 100 µM (inactive)

Question: What about the GI50 (MOLT-4) of the same compound?
Answer: > 100 µM (inactive)

Question: What about the GI50 (MCF7) of the same compound?
Answer: > 100 µM (inactive)

Question: And the GI50 (ACHN)?
Answer: > 100 µM (inactive)

Question: And the GI50 (TK-10)?
Answer: > 100 µM (inactive)

Question: And the GI50 (M14)?
Answer: > 100 µM (inactive)

Question: And the GI50 (UACC-62)?
Answer: > 100 µM (inactive)

Question: What about the GI50 (COLO 205) of the same compound?
Answer: > 100 µM (inactive)

Question: What about the GI50 (DU-145) of the same compound?
Answer: > 100 µM (inactive)

Question: What about the GI50 (T47D) of the same compound?
Answer: 23.6 µM (inactive)

Question: What about the GI50 (UACC-257) of the same compound?
Answer: > 100 µM (inactive)

Question: And the GI50 (SK-MEL-5)?
Answer: 42.6 µM (inactive)

Question: And the GI50 (SF-268)?
Answer: > 100 µM (inactive)

Question: And the GI50 (HT-29)?
Answer: > 100 µM (inactive)

Question: And the GI50 (RXF 393)?
Answer: > 100 µM (inactive)

Question: And the GI50 (HOP-62)?
Answer: > 100 µM (inactive)

Question: And the GI50 (PC-3)?
Answer: > 100 µM (inactive)

Question: What about the GI50 (MDA-MB-435) of the same compound?
Answer: > 100 µM (inactive)

Question: And the GI50 (LOX IMVI)?
Answer: > 100 µM (inactive)

Question: What about the GI50 (Malme-3M) of the same compound?
Answer: > 100 µM (inactive)

Question: What about the GI50 (HOP-92) of the same compound?
Answer: 80 µM (inactive)

Question: What about the GI50 (HL-60) of the same compound?
Answer: > 100 µM (inactive)

Question: What about the GI50 (HCC 2998) of the same compound?
Answer: > 100 µM (inactive)

Question: What about the GI50 (HCT-15) of the same compound?
Answer: > 100 µM

Question: And the GI50 (IGROV-1)?
Answer: > 100 µM (inactive)

Question: What about the GI50 (KM12) of the same compound?
Answer: 5.31 µM (inactive)

Question: And the GI50 (NCI-H460)?
Answer: 63 µM (inactive)

Question: What about the GI50 (RPMI-8226) of the same compound?
Answer: > 100 µM (inactive)

Question: And the GI50 (MDA-N)?
Answer: > 100 µM (inactive)

Question: And the GI50 (K562)?
Answer: > 100 µM (inactive)

Question: What about the GI50 (SF-539) of the same compound?
Answer: > 100 µM (inactive)

Question: What about the GI50 (EKVX) of the same compound?
Answer: > 100 µM (inactive)

Question: And the GI50 (SK-MEL-2)?
Answer: > 100 µM (inactive)

Question: What about the GI50 (SK-MEL-28) of the same compound?
Answer: > 100 µM (inactive)

Question: And the GI50 (MDA-MB-231)?
Answer: > 100 µM (inactive)

Question: And the GI50 (NCI-H522)?
Answer: > 100 µM (inactive)

Question: And the GI50 (CAKI-1)?
Answer: > 100 µM (inactive)

Question: What about the GI50 (OVCAR-5) of the same compound?
Answer: > 100 µM (inactive)

Question: And the GI50 (SR)?
Answer: 68.7 µM (inactive)

Question: What about the GI50 (786-0) of the same compound?
Answer: > 100 µM (inactive)

Question: And the GI50 (NCI-H23)?
Answer: 65.8 µM (inactive)

Question: What about the GI50 (SNB-19) of the same compound?
Answer: > 100 µM (inactive)

Question: And the GI50 (NCI-H226)?
Answer: > 100 µM (inactive)

Question: What about the GI50 (CCRF-CEM) of the same compound?
Answer: > 100 µM (inactive)

Question: And the GI50 (SF-295)?
Answer: > 100 µM (inactive)

Question: What about the GI50 (SN12C) of the same compound?
Answer: > 100 µM (inactive)

Question: And the GI50 (SK-OV-3)?
Answer: > 100 µM (inactive)

Question: What about the GI50 (OVCAR-3) of the same compound?
Answer: > 100 µM (inactive)

Question: What about the GI50 (HCT-116) of the same compound?
Answer: > 100 µM (inactive)

Question: And the GI50 (OVCAR-4)?
Answer: > 100 µM (inactive)

Question: And the GI50 (A498)?
Answer: > 100 µM (inactive)

Question: What about the GI50 (Hs-578T) of the same compound?
Answer: > 100 µM (inactive)

Question: What about the GI50 (BT-549) of the same compound?
Answer: > 100 µM (inactive)

Question: Which results are given for `O=C1CCCCC/C1=C\c1cccc(Cl)c1`?
Answer: GI50 (SW-620): 20.8 µM (inactive); GI50 (U-251): 47.2 µM (inactive); GI50 (UO-31): 24.1 µM (inactive); GI50 (A549): 63.2 µM (inactive); GI50 (MOLT-4): 27.4 µM (inactive); GI50 (ACHN): 28.2 µM (inactive); GI50 (M14): 32.4 µM (inactive); GI50 (UACC-62): 45.9 µM (inactive); GI50 (COLO 205): 35.3 µM (inactive); GI50 (DU-145): > 100 µM (inactive); GI50 (T47D): > 100 µM (inactive); GI50 (UACC-257): 42.1 µM (inactive); GI50 (SK-MEL-5): 25.4 µM (inactive); GI50 (SF-268): 22 µM (inactive); GI50 (HT-29): 38.6 µM (inactive); GI50 (HOP-62): > 100 µM (inactive); GI50 (PC-3): 22.5 µM (inactive); GI50 (MDA-MB-435): 31 µM (inactive); GI50 (LOX IMVI): 41.5 µM (inactive); GI50 (Malme-3M): 42.9 µM (inactive); GI50 (HOP-92): 35.6 µM (inactive); GI50 (HCC 2998): 41.7 µM (inactive); GI50 (HCT-15): 32.2 µM; GI50 (IGROV-1): 46.2 µM (inactive); GI50 (KM12): 30.8 µM (inactive); GI50 (NCI-H460): 29.6 µM (inactive); GI50 (RPMI-8226): 20 µM (inactive); GI50 (MDA-N): 45.4 µM (inactive); GI50 (EKVX): 50.9 µM (inactive); GI50 (SK-MEL-2): 46.5 µM (inactive); GI50 (SK-MEL-28): 49.4 µM (inactive); GI50 (MDA-MB-231): > 100 µM (inactive); GI50 (NCI-H522): 39.2 µM (inactive); GI50 (CAKI-1): 72.6 µM (inactive); GI50 (OVCAR-5): > 100 µM (inactive); GI50 (SR): 20.4 µM (inactive); GI50 (786-0): 41.1 µM (inactive); GI50 (NCI-H23): 42.9 µM (inactive); GI50 (SNB-19): > 100 µM (inactive); GI50 (NCI-H226): 34.4 µM (inactive); GI50 (SNB-75): 48.5 µM (inactive); GI50 (CCRF-CEM): 4.06 µM (inactive); GI50 (SF-295): 20 µM (inactive); GI50 (SN12C): 93.8 µM (inactive); GI50 (SK-OV-3): > 100 µM (inactive); GI50 (OVCAR-3): 71.3 µM (inactive); GI50 (HCT-116): 40.2 µM (inactive); GI50 (OVCAR-4): 26.5 µM (inactive); GI50 (A498): > 100 µM (inactive); GI50 (Hs-578T): 35.9 µM (inactive); GI50 (BT-549): 43.2 µM (inactive)
